One may read the solubility as how much of the substance goes into solution per volume.

The nature of series [1]: Solubility of diastereomeric salts in solvents. The class given is physicochemical. The conditions noted are these: 20 °C, read-out: Solubility @ 20-30° C. The source says: Thus, in another highly preferred embodiment, DCM is used in step c).
Series [2] is described as follows: Thermogravimetric analysis (TGA) weight loss. The class given is physicochemical. The conditions noted are these: salt screening sample, at the temperature given (80-200° C.). The source says: (§1) According to the salt screening results (see Table 4), totally 19 potential salt hits were identified. All the potential salt hits were further investigated by Differential Scanning Calorimetry (DSC), Thermogravimetric analysis (TGA), H-NMR, Ion chromatography (IC), Karl Fischer titration (KF), and Polarized Light Microscopy (PLM) to confirm their identity and evaluate their physicochemical properties as shown in Table 5 below.

The nature of series [3]: Salt screening (slurry crystallization). The class given is physicochemical. Details: key to Salt screening result: (+) shows that a crystalline salt was formed; (−) physical mixtures. The conditions noted are these: for Polymorph obtained in salt screening: XRPD; for Salt screening result: slurry 50° C. then 25° C. The method, then: About 45 mg was added to a suitable solvent and different equivalents of acids were added under stirring at 50° C. for about 2 hours and then at 25° C. for at least 32 hours. Ethanol, acetone, and ACN were used as screening solvents. When no precipitation was obtained or only a few solids were obtained, the solutions were placed at 5° C. for crystallization.
(§2) Obtained suspensions were taken out and centrifuged. Solids obtained was analysed by XRPD. Salts with high or medium crystallinity were further characterized (see Table 5).

Series [4] can be described thus: Hygroscopicity (water uptake) of salt hits. The conditions noted are these: salt screening sample; for Hygroscopicity: grade in words. The class given is physicochemical.
Source text: as §1

A further series is described as follows: Crystallinity by XRPD. The class given is physicochemical. The conditions noted are these: salt screening sample. The method, then:
as §2, §1

Series [5] is classed as physicochemical. The conditions noted are these: salt screening sample.
Source text: as §1

The mark [6] stands for this setting: organic solvent or mixture, in Acetone.
The mark [7] stands for this setting: organic solvent or mixture, in DCM.
Where [8] appears, read: organic solvent or mixture, in EtOAc.
[9] abbreviates: organic solvent or mixture, in EtOH.
The mark [10] stands for this setting: organic solvent or mixture, in Heptane.
Setting [11] is: organic solvent or mixture, in IPA.
Where [12] appears, read: organic solvent or mixture, in IPAC.
Where [13] appears, read: organic solvent or mixture, in MEK.
Setting [14] is: organic solvent or mixture, in MTBE.
[15] abbreviates: organic solvent or mixture, in MeOH.
Setting [16] is: organic solvent or mixture, in THF.
The mark [17] stands for this setting: organic solvent or mixture, in Toluene.

Where a name gives a salt, the structure may show the parent alone. Read-outs that look alike come from different tables or passages of the source.

Turning to `COc1cc(C(F)(F)F)c(OC)cc1[C@H]1CCCNC1` [(−)-Di-p-anisoyl-L-tartaric acid salt of (R)-3-(2,5-dimethoxy-4-(trifluoromethyl)phenyl)piperidine (1:1)], the solubility in series [1] (setting [6]) was less than 10000 µg/mL; in series [1] (setting [7]), greater than 400000 µg/mL; in series [1] (setting [8]), less than 10000 µg/mL; in series [1] (setting [9]), 25000 µg/mL; in series [1] (setting [10]), less than 10000 µg/mL; in series [1] (setting [11]), less than 10000 µg/mL. In addition, the solubility in series [1] (setting [12]) was less than 10000 µg/mL; in series [1] (setting [13]), less than 10000 µg/mL; in series [1] (setting [14]), less than 10000 µg/mL; in series [1] (setting [15]), 40000 µg/mL; in series [1] (setting [16]), 45000 µg/mL; in series [1] (setting [17]) it was less than 10000 µg/mL. In addition, in series [1] (in Water), the solubility was less than 5000 µg/mL.

On to `CC(=O)O.COc1cc(C(F)(F)F)c(OC)cc1[C@@H]1CCCNC1` [Acetate salt Polymorph A], for which the “Weight loss (%)” value in series [2] came to 0.2%. For the same compound, the “Polymorph obtained in salt screening” value in series [3] (ACN) and in series [3] (Acetone) was “Polymorph A” throughout. The Salt screening result in series [3] (ACN) is listed as “+”; in series [3] (Acetone), “+”; in series [3] (EtOH) it was “Clear solution”. Also, the Hygroscopicity result in series [4] is “None”. Also, the Crystallinity entry in “Crystallinity by XRPD” is “High”.

With `COc1cc(C(F)(F)F)c(OC)cc1[C@@H]1CCCNC1.C[C@@H](O)C(=O)O` [D-lactate salt Polymorph A], the Salt screening result in series [3] (ACN) is listed as “Clear solution”; in series [3] (Acetone), “Thin suspension”; in series [3] (EtOH), “+”. For the same compound, the “Polymorph obtained in salt screening” value in series [3] (EtOH) is on record as “Polymorph A”. Moreover, the Crystallinity entry in “Crystallinity by XRPD” is “High”.

Regarding `COc1cc(C(F)(F)F)c(OC)cc1[C@@H]1CCCNC1.COc1cc(C(F)(F)F)c(OC)cc1[C@@H]1CCCNC1.O=C(O)C(O)C(O)C(=O)O` [Hemi L-tartrate salt Polymorph A], the “Weight loss (%)” value in series [2] came to 4.0%. For the same compound, the “Polymorph obtained in salt screening” value in series [3] (ACN), in series [3] (Acetone) and in series [3] (EtOH) was “Polymorph A” each time. Moreover, the Salt screening result in series [3] (ACN), in series [3] (Acetone) and in series [3] (EtOH) was “+” in each case. Also, in “Crystallinity by XRPD”, the Crystallinity result is “Medium”.

For `COc1cc(C(F)(F)F)c(OC)cc1[C@@H]1CCCNC1.COc1cc(C(F)(F)F)c(OC)cc1[C@@H]1CCCNC1.O=C(O)/C=C/C(=O)O` [Hemi-fumarate salt Polymorph A], the “Weight loss (%)” value in series [2] is 4.8%. Besides, the “Water content (% w/w)” value in series [5] amounted to 5.5% w/w. The Crystallinity entry in “Crystallinity by XRPD” is listed as “Medium”.

On to `COc1cc(C(F)(F)F)c(OC)cc1[C@@H]1CCCNC1.COc1cc(C(F)(F)F)c(OC)cc1[C@@H]1CCCNC1.O=C(O)/C=C/C(=O)O` [Hemi-fumarate salt Polymorph B], for which, in series [2], the “Weight loss (%)” value came to 9.4%. Further, the “Water content (% w/w)” value in series [5] is 9.3% w/w. Further, the Crystallinity entry in the series “Crystallinity by XRPD” is “Medium”.

Regarding `COc1cc(C(F)(F)F)c(OC)cc1[C@@H]1CCCNC1.COc1cc(C(F)(F)F)c(OC)cc1[C@@H]1CCCNC1.O=C(O)CCC(=O)O` [Hemi-succinate salt Polymorph B], the “Weight loss (%)” value in series [2] worked out at 4.8%. Further, in series [3] (ACN), the “Polymorph obtained in salt screening” value is on record as “Polymorph A” and the Salt screening result is “+”. Besides, in series [3] (Acetone), the “Polymorph obtained in salt screening” value is listed as “Polymorph A” and the Salt screening result is recorded as “+”. Also, in series [3] (EtOH), the “Polymorph obtained in salt screening” value is given as “Polymorph A” and the Salt screening result is listed as “+”. In series [4], the “Hygroscopicity (water uptake % w/w)” value is listed as “(~1.8%) % w/w” and the Hygroscopicity result is “Hygroscopic”. Also, the Crystallinity entry in the series “Crystallinity by XRPD” was “Medium”.

With `COc1cc(C(F)(F)F)c(OC)cc1[C@@H]1CCCNC1.N[C@@H](CC(=O)O)C(=O)O` [L-aspartate salt Polymorph A], the “Weight loss (%)” value in series [2] came to 3.9%. For the same compound, the “Polymorph obtained in salt screening” value in series [3] (ACN) and in series [3] (EtOH) was “Polymorph A” each time. Also, the Salt screening result in series [3] (ACN) is listed as “+”; in series [3] (Acetone) it was “−”; in series [3] (EtOH) it was “+”. In addition, the “Water content (% w/w)” value in series [5] is listed as 7.0% w/w. In series [4], the “Hygroscopicity (water uptake % w/w)” value is “(~4.3%) % w/w”. In addition, in series [4], the Hygroscopicity result is reported as “Hygroscopic”. Moreover, in the series “Crystallinity by XRPD”, the Crystallinity result is recorded as “High”.

Take `COc1cc(C(F)(F)F)c(OC)cc1[C@@H]1CCCNC1.N[C@@H](CCC(=O)O)C(=O)O` [L-glutamate salt Polymorph A]: the “Weight loss (%)” value in series [2] is listed as 4.8%. Moreover, the “Water content (% w/w)” value in series [5] came out at 8.6% w/w. Further, the Crystallinity entry in “Crystallinity by XRPD” is “Low”.

Turning to `COc1cc(C(F)(F)F)c(OC)cc1[C@@H]1CCCNC1.N[C@@H](CCC(=O)O)C(=O)O` [L-glutamate salt Polymorph B], the “Weight loss (%)” value in series [2] was 6.6%. Moreover, in series [5], the “Water content (% w/w)” value is on record as 6.9% w/w. Further, the Crystallinity result in “Crystallinity by XRPD” is “Medium”.

`COc1cc(C(F)(F)F)c(OC)cc1[C@@H]1CCCNC1.N[C@@H](CCC(=O)O)C(=O)O` [L-glutamate salt Polymorph C]: the “Weight loss (%)” value in series [2] turned out to be 6.3%. Further, the “Water content (% w/w)” value in series [5] is given as 8.7% w/w. The Crystallinity result in the series “Crystallinity by XRPD” is given as “High”.

Take `COc1cc(C(F)(F)F)c(OC)cc1[C@@H]1CCCNC1.O=C(O)/C=C/C(=O)O` [Mono-fumarate salt Polymorph C]: the “Weight loss (%)” value in series [2] came to 0.6%. For the same compound, the “Polymorph obtained in salt screening” value in series [3] (ACN), in series [3] (Acetone) and in series [3] (EtOH) was “Polymorph C” in each case. For the same compound, the Salt screening result in series [3] (ACN), in series [3] (Acetone) and in series [3] (EtOH) was “+” each time. In addition, the “Hygroscopicity (water uptake % w/w)” value in series [4] is on record as “(~0.2%) % w/w”. In the series “Crystallinity by XRPD”, the Crystallinity result was “Medium”.

On to `COc1cc(C(F)(F)F)c(OC)cc1[C@@H]1CCCNC1.O=P(O)(O)O` [Phosphate salt Polymorph A], for which the “Weight loss (%)” value in series [2] is given as 0.7%. Besides, the Salt screening result in series [3] (ACN) is “Hazy solution”; in series [3] (Acetone), “+”; in series [3] (EtOH), “Clear solution”. Also, in series [3] (Acetone), the “Polymorph obtained in salt screening” value is recorded as “Polymorph A”. Moreover, the Crystallinity entry in the series “Crystallinity by XRPD” is recorded as “Medium”.

As for `COc1cc(C(F)(F)F)c(OC)cc1[C@@H]1CCCNC1.O=S(=O)(O)O` [Sulfate salt Polymorph A], the “Weight loss (%)” value in series [2] amounted to 8.2%. For the same compound, the “Polymorph obtained in salt screening” value in series [3] (ACN), in series [3] (Acetone) and in series [3] (EtOH) was “Polymorph A” in each case. The Salt screening result in series [3] (ACN), in series [3] (Acetone) and in series [3] (EtOH) was “+” each time. Also, the Crystallinity entry in the series “Crystallinity by XRPD” is given as “High”.

As to `COc1cc(C(F)(F)F)c(OC)cc1[C@@H]1CCCNC1` [drawing 39, (−)-Di-p-anisoyl-L-tartaric acid salt of (S)-3-(2,5-dimethoxy-4-(trifluoromethyl)phenyl)piperidine (1:1)], the solubility is 50000 µg/mL in series [1] (organic solvent or mixture, in 2-MeTHF); 12000 µg/mL in series [1] (organic solvent or mixture, in ACN); less than 10000 µg/mL in series [1] (setting [6]); less than 10000 µg/mL in series [1] (setting [7]); less than 10000 µg/mL in series [1] (setting [8]); 12000 µg/mL in series [1] (setting [9]). Moreover, the solubility in series [1] (setting [10]) was less than 10000 µg/mL; in series [1] (setting [11]), less than 10000 µg/mL; in series [1] (setting [12]), less than 10000 µg/mL; in series [1] (setting [13]) it was less than 10000 µg/mL; in series [1] (setting [14]), less than 10000 µg/mL; in series [1] (setting [15]) it was 30000 µg/mL. The solubility in series [1] (setting [16]) is 50000 µg/mL; in series [1] (setting [17]), less than 10000 µg/mL; in series [1] (in Water), less than 5000 µg/mL.

Take Citric acid: the Salt screening result in series [3] (ACN), in series [3] (Acetone) and in series [3] (EtOH) was “Clear solution” in each case.

Gentisic acid: the Salt screening result in series [3] (ACN), in series [3] (Acetone) and in series [3] (EtOH) was “Clear solution” throughout.

In the case of Glutamic acid, the figures for the “Polymorph obtained in salt screening” value in series [3] (ACN) and in series [3] (EtOH) were “Polymorph C” and “Polymorph A”, respectively. Also, the Salt screening result in series [3] (ACN), in series [3] (Acetone) and in series [3] (EtOH) was “+” in each case.

Values taken from patent publication US12723024B2 (priority 2021, dated 2026).
